The source of these data is patent publication US7592335B2, “Oxazolidinone derivatives as antimicrobials” (Ranbaxy Laboratories Limited, priority 2005, dated 2009).

The test system of experiment [1] is Moraxella catarrhalis ATCC 8176. The experiment in a line: in vitro antibacterial activity, agar dilution MIC (MHA and 5% sheep blood). It counts as cell-based. Conditions: 18-24 hours. As for the experimental part: (§1) The compounds of the invention display antibacterial activity when tested by the agar incorporation method. The following minimum inhibitory concentrations (μg/mL) were obtained for representative compound of the invention, which is given below in the following table.
(§2) Inoculum preparation for Streptococcus pneumoniae, Moraxella catarrhalis, Streptococcus pyogenes strains and the method of MIC is an agar dilution method with MHA (Mueller Hinton agar) and 5% sheep blood. Inoculum was prepared by direct colony suspension in normal saline solution and adjusting the turbidity to 1 Mcfarland and subsequently diluting as per NCCLS guidelines in order to obtain 10^4 CFU/ml. The plates were incubated in CO2 at 37° C. for 18-24 hours.
(§3) The concentration showing no growth of the inoculated culture was recorded as the MIC. Appropriate ATCC standard strains were simultaneously tested and result recorded only when the MIC's against standard antibiotics were within the acceptable range.
For orientation: In agar dilution the substance is mixed into plates at graded concentrations.

Experiment [2] concerns Streptococcus pyogenes ATCC 19615. The experiment is described as above. In kind it is cell-based. To be noted: 18-24 hours. How it is done:
as §1, §2, §3

In experiment [3] the test system is Staphylococcus aureus ATCC 25923. Kind of experiment: in vitro antibacterial activity, agar dilution MIC. To be noted: 35±2° C. It counts as cell-based. As for the experimental part:
as §1
(§4) Briefly, the compounds were dissolved in dimethylsulphoxide and doubling dilution of the compounds was incorporated into Muller Hilton agar before solidification. Inoculum for staphylococcus aureus and Enterococus strain was prepared by direct colony suspension in normal saline solution and adjusting the turbidity to 0.5 Macfarland turbidity and subsequently diluting as per NCCLS guidelines in order to obtain 10^4 CFU/spot. CFU/mL of few randomly selected cultures was performed. The cultures were replicated on agar plate using Denley's multipoint replicator. The agar plates were incubated for 18 hours-24 hours (24 hours for MRSA studies) at 35±2° C. Q.C. strains were also included in each run of the study.
as §3

The subject of experiment [4] is Vancomycin-resistant enterococci ATCC 6A. The experiment in a line: in vitro antibacterial activity, agar dilution MIC. In kind it is cell-based. Conditions: VRE ATCC 6A, 18-24 hours, 35±2° C. As for the experimental part: as §1, §4, §3
In experiment [5] the test system is Methicilline Resistant Staphylococcus aureus ATCC33. The experiment in a line: in vitro antibacterial activity, agar dilution MIC. In kind it is cell-based. Conditions: 24 hours, 35±2° C. As for the experimental part:
as §1, §4, §3

In experiment [6] the test system is Methicilline Resistant Staphylococcus aureus ATCC562. Kind of experiment: in vitro antibacterial activity, agar dilution MIC. Conditions: 24 hours, 35±2° C. In kind it is cell-based. How it is done:
as §1, §4, §3

In experiment [7] the test system is Enterococcus faecalis ATCC 29212. The experiment in a line: in vitro antibacterial activity, agar dilution MIC. In kind it is cell-based. Conditions: 35±2° C. As for the experimental part:
as §1, §4, §3

Experiment [8] has as its system Staphylococcus aureus ATCC 15187. The experiment in a line: in vitro antibacterial activity, agar dilution MIC. Conditions: 35±2° C. It counts as cell-based. How it is done: as §1, §4, §3
For experiment [9], the system named is Streptococcus pneumonia ATCC6303. The experiment in a line: in vitro antibacterial activity, agar dilution MIC (MHA and 5% sheep blood). Conditions: 18-24 hours. It counts as cell-based, Streptococcus pneumoniae. How it is done: as §1, §2, §3
Experiment [10] concerns Streptococcus pneumonia ATCC AB34. The experiment is described as above. In kind it is cell-based, Streptococcus pneumoniae. Conditions: 18-24 hours. As for the experimental part:
as §1, §2, §3

Experiment [11] concerns Haemophilus influenzae 49247. The experiment in a line: Haemophilus MIC, microbroth dilution method. Conditions: H. influ. 49247, Mueller Hinton Broth cation adjusted + yeast extract + supplements. It counts as cell-based. As for the experimental part: as §1
The in vitro activity for Haemophilus MICs were performed by using Microbroth dilution method as follows: Media used: Mueller Hinton Broth (MHB-Difco)−Cation adjusted+5 grams per liter Yeast extract+supplements
Preparation of drug concentrations in 96 well microtitre plates were done as per the NCCLS method. Inoculum was prepared by direct colony suspensions in normal saline and adjusted to 1 McFarland turbidity and subsequently diluted in broth 100 times as per NCCLS guidelines in order to obtain 10^5 […].
as §3

≈ marks a conversion by molar mass, not a printed value.

As for `CC(=O)NCC1CN(c2ccc(N3CC4NCCOC4C3)c(F)c2)C(=O)O1` (stereo not shown) [Compound No. 05, N-[(3-{3-fluoro-4-[(7aE)-hexahydropyrrolo[3,4-b][1,4]oxazin-6(2H)-yl]phenyl}-2-oxo-1,3-oxazolidin-5-yl)methyl]acetamide], the “minimum inhibitory concentration, M. catt 8176” value in experiment [1] (M. catt. ATCC 8176, CO2, 37° C.) is more than 16 µg/mL. For the same compound, in experiment [2] (Strep. pyog. ATCC 19615, CO2, 37° C.), the “minimum inhibitory concentration, S. pyogenes 19615” value was determined as 2 µg/mL (≈ 5.29 µM). Besides, in experiment [3] (S. aureus ATCC 25923, 18-24 hours), the “minimum inhibitory concentration, S. aureus 25923” value was found to be 8 µg/mL (≈ 21.1 µM). The “minimum inhibitory concentration, VRE 6A” value in [4] worked out at 2 µg/mL (≈ 5.29 µM). Moreover, the “minimum inhibitory concentration, MRSA 33” value in [5] was 4 µg/mL (≈ 10.6 µM). The “minimum inhibitory concentration, MRSA 562” value in [6] stood at 4 µg/mL (≈ 10.6 µM). Also, in [7] (Ent. faecalis ATCC 29212, 18-24 hours), the “minimum inhibitory concentration, E. faecalis 29212” value was determined as 2 µg/mL (≈ 5.29 µM). Further, the “minimum inhibitory concentration, S. aureus 15187” value in experiment [8] (S. aureus ATCC 15187, 18-24 hours) was found to be 8 µg/mL (≈ 21.1 µM). Besides, the “minimum inhibitory concentration, S. pneum 6303” value in [9] (CO2, 37° C.) was determined as 2 µg/mL (≈ 5.29 µM). Further, in experiment [10] (CO2, 37° C.), the “minimum inhibitory concentration, S. pneum AB34” value is 2 µg/mL (≈ 5.29 µM). Further, the “minimum inhibitory concentration, H. inf 49247” value in [11] was 8 µg/mL.
Turning to `CC(=O)NC[C@H]1CN(c2ccc(N3CCOCC3)c(F)c2)C(=O)O1` [Linezolid], the MIC was 2 µg/mL (≈ 5.93 µM) in experiment [1] (Moraxella catarrhalis, ATCC8176, M. catt. ATCC 8176, CO2, 37° C., read-out: minimum inhibitory concentration, M. catt 8176); 2 µg/mL (≈ 5.93 µM) in [2] (Streptococcus pyogenes, ATCC19615, Strep. pyog. ATCC 19615, CO2, 37° C., read-out: minimum inhibitory concentration, S. pyogenes 19615); 2 µg/mL (≈ 5.93 µM) in experiment [3] (Staphylococcus aureus, ATCC25923, S. aureus ATCC 25923, 18-24 hours, read-out: minimum inhibitory concentration, S. aureus 25923); 2 µg/mL (≈ 5.93 µM) in experiment [4] (Enterococcus, read-out: minimum inhibitory concentration, VRE 6A); 2 µg/mL (≈ 5.93 µM) in experiment [5] (Staphylococcus aureus, ATCC 33 / MRSA, read-out: minimum inhibitory concentration, MRSA 33); 2 µg/mL (≈ 5.93 µM) in experiment [6] (Staphylococcus aureus, ATCC 562 / MRSA, read-out: minimum inhibitory concentration, MRSA 562). Also, the MIC came out at 2 µg/mL (≈ 5.93 µM) in experiment [7] (Enterococcus faecalis, ATCC29212, Ent. faecalis ATCC 29212, 18-24 hours, read-out: minimum inhibitory concentration, E. faecalis 29212); 2 µg/mL (≈ 5.93 µM) in [8] (Staphylococcus aureus, ATCC15187, S. aureus ATCC 15187, 18-24 hours, read-out: minimum inhibitory concentration, S. aureus 15187); 1 µg/mL (≈ 2.96 µM) in experiment [9] (Streptococcus pneumoniae, S. pneum ATCC6303, CO2, 37° C., read-out: minimum inhibitory concentration, S. pneum 6303); 2 µg/mL (≈ 5.93 µM) in experiment [10] (Streptococcus pneumoniae, ATCCAB34, S. pneum ATCC AB34, CO2, 37° C., read-out: minimum inhibitory concentration, S. pneum AB34); 8 µg/mL in experiment [11] (Haemophilus influenzae, read-out: minimum inhibitory concentration, H. inf 49247).
